What was measured:
[1] = target: T1, ML1a receptor (Homo sapiens, UniProt P48039); experiment: Melatonergic receptor binding activity, 2-[125I]-iodomelatonin, ML1a; settings: membrane homogenates of NIH-3T3 cells, 37° C. for 1 hour
T1 construct: expressed in transfected cells; pcDNA3)
Experimental: (§1) Melatonergic Receptor Binding Activity
(§2) (a) TME=50 mM Tris buffer containing 12.5 mM MgCl2, and 2 mM EDTA, pH 7.4 at 37° C., with concentrated HCl.
(§3) (b) Wash buffer: 20 mM Tris base containing 2 mM MgCl2, pH 7.4 at room temperature.
(§4) (c) 10^−4 M melatonin (10^−5 M final concentration).
(§5) (d) 2-[^125I]-iodomelatonin, […] final concentration.
2. Membrane Homogenates: The melatonin ML1α receptor cDNA was subcloned into pcDNA3 and introduced into NIH-3T3 cells using Lipofectamine. Transformed NIH-3T3 cells resistant to geneticin (G-418) were isolated, and single colonies expressing high levels of 2-[^125I]-iodomelatonin binding were isolated. Cells are maintained in DMEM supplemented with 10% calf serum and G-418 (0.5 g/liter). Cells are grown to confluency in T-175 flasks, scraped using Hank's balanced salt solution, and frozen at −80° C. For preparing membrane homogenates, pellets are thawed on ice, and re-suspended in TME buffer in the presence of 10 μg/ml aprotinin and leupeptin, and 100 μM phenylmethylsulfonylfluoride. The cells were then homogenized using a dounce homogenizer, and centrifuged. The resulting pellet was re-suspended with dounce homogenizer in TME (supplemented with the above protease inhibitors) and frozen. On the day of assay, a small aliquot was thawed on ice and re-suspended in the ice cold TME (1:50-1:100 v/v) and held on ice until assayed.
(§6) 3. Incubation: 37° C. for 1 hour. Reaction is terminated by filtration. Filters were washed 3 times.
(§7) The compounds of the present invention have affinity for receptors of the endogenous pineal hormone, melatonin, as determined in a receptor binding assays described above in Tables I to V for the ML1a and ML1b (human) receptors. Melatonin is involved in the regulation of a variety of biological rhythms and exerts its biological effects via interaction with specific receptors. There is evidence that administration of melatonin agonists are of clinical utility in the treatment of various conditions regulated by melatonin activity. Such conditions include depression, jet-lag, work-shift syndrome, sleep disorders, glaucoma, some disorders associated with reproduction, cancer benign prostatic hyperplasia, immune disorders and neuroendocrine disorders.

[2] = target: T2, ML1b receptor (Homo sapiens, UniProt P49286); experiment: Melatonergic receptor binding activity, 2-[125I]-iodomelatonin, ML1b; settings: 37° C. for 1 hour
T2 construct: expressed in transfected cells
T2 sequence (P49286 1-362): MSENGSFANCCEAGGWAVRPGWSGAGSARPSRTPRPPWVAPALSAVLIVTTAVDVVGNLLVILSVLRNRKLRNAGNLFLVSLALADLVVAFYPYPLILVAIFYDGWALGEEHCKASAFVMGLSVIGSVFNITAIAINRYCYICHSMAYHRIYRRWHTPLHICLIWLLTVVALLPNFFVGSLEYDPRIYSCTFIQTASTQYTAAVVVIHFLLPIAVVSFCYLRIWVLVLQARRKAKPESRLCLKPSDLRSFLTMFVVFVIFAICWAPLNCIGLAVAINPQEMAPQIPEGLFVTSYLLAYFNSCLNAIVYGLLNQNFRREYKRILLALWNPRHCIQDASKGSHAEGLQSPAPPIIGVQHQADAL
Experimental: as §1, §2, §3, §4, §5, §6, §7

T1 sequence (P48039 whole entry): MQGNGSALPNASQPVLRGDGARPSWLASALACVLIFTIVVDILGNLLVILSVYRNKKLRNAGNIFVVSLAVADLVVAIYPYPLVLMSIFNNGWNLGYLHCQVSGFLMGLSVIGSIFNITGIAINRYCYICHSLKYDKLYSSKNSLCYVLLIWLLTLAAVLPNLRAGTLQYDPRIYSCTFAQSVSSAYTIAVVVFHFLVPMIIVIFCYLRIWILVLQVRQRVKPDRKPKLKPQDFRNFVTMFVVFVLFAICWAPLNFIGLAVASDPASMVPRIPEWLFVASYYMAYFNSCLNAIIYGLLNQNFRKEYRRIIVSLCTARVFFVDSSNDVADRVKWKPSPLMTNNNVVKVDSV

Structure (SMILES) | IC50 ([1]; Table IV) [nM] | IC50 ([2]; Table IV) [nM] | further results
CC(=O)NC[C@H]1C[C@@H]1c1cccc2oc(CCCCc3ccccc3)cc12 (racemic) [Example 28, N-({(1R,2R)-2-[2-(4-Phenylbutyl)benzo[b]furan-4-yl]-cyclopropyl}methyl)acetamide] | < 10 | 10 to 250 | –
CCC(=O)NC[C@H]1C[C@@H]1c1cccc2oc(CCCCc3ccccc3)cc12 (racemic) [Example 31, N-({(1R,2R)-2-[2-(4-Phenylbutyl)benzo[b]furan-4-yl]-cyclopropyl}methyl)propanamide] | < 10 | < 10 | –
CCCC(=O)NC[C@H]1C[C@@H]1c1cccc2oc(CCCCc3ccccc3)cc12 (racemic) [Example 32, N-({(1R,2R)-2-[2-(4-Phenylbutyl)benzo[b]furan-4-yl]-cyclopropyl}methyl)butanamide] | 10 to 250 | 10 to 250 | –
CC(C)C(=O)NC[C@H]1C[C@@H]1c1cccc2oc(CCCCc3ccccc3)cc12 (racemic) [Example 33, N-({(1R,2R)-2-[2-(4-Phenylbutyl)benzo[b]furan-4-yl]-cyclopropyl}methyl)-2-methylpropanamide] | 10 to 250 | 10 to 250 | –
O=C(NC[C@H]1C[C@@H]1c1cccc2oc(CCCCc3ccccc3)cc12)C1CC1 (racemic) [Example 34, N-({(1R,2R)-2-[2-(4-Phenylbutyl)benzo[b]furan-4-yl]-cyclopropyl}methyl)cyclopropylcarboxamide] | 10 to 250 | 10 to 250 | –
CC(=O)NC[C@H]1C[C@@H]1c1cccc2oc(CCCCc3ccccc3)cc12 (single isomer, unassigned) [Example 29] | < 10 | 10 to 250 | –
CC(=O)NC[C@H]1C[C@@H]1c1cccc2oc(CCCCc3ccccc3)cc12 (single isomer, unassigned) [Example 30] | 10 to 250 | > 250 | –
CCC(=O)NCCCc1cccc2c1C[C@H](CCCCc1ccccc1)O2 (stereo in doubt) [Example 2, N-[3-[2-(4-Phenylbutyl)-2,3-dihydrobenzofuran-4-yl]propyl]propionamide] | – | – | IC50 ([1]; Table I): < 10 nM; IC50 ([2]; Table I): 10 to 250 nM
CC(C)C(=O)NCCCc1cccc2c1C[C@H](CCCCc1ccccc1)O2 (stereo in doubt) [Example 4, N-[3-[2-(4-Phenylbutyl)-2,3-dihydrobenzofuran-4-yl]propyl]-2-methylpropionamide] | – | – | IC50 ([1]; Table I): < 10 nM; IC50 ([2]; Table I): 10 to 250 nM
CCNC(=O)NC[C@@H]1C[C@H]1c1cccc2oc(CCCCc3ccccc3)cc12 (stereo in doubt) [Example 35, N-({(1R,2R)-2-[2-(4-Phenylbutyl)benzo[b]furan-4-yl]-cyclopropyl}methyl)(ethylamino)carboxamide] | 10 to 250 | 10 to 250 | –
CC(=O)NC[C@@H]1C[C@H]1c1cccc2oc(CCCCc3ccc(F)cc3)cc12 (stereo in doubt) [Example 36, N-[((1R,2R)-2-{2-[4-(4-Fluorophenyl)butyl]benzo[b]furan-4-yl}-cyclopropyl)methyl]acetamide] | < 10 | 10 to 250 | –
CCC(=O)NC[C@@H]1C[C@H]1c1cccc2oc(CCCCc3ccc(F)cc3)cc12 (stereo in doubt) [Example 37, N-[((1R,2R)-2-{2-[4-(4-Fluorophenyl)butyl]benzo[b]furan-4-yl}-cyclopropyl)methyl]propanamide] | < 10 | 10 to 250 | –
CCCC(=O)NC[C@@H]1C[C@H]1c1cccc2oc(CCCCc3ccc(F)cc3)cc12 (stereo in doubt) [Example 38, N-[((1R,2R)-2-{2-[4-(4-Fluorophenyl)butyl]benzo[b]furan-4-yl}-cyclopropyl)methyl]butanamide] | 10 to 250 | 10 to 250 | –
CC(C)C(=O)NC[C@@H]1C[C@H]1c1cccc2oc(CCCCc3ccc(F)cc3)cc12 (stereo in doubt) [Example 39, N-[((1R,2R)-2-{2-[4-(4-Fluorophenyl)butyl]benzo[b]furan-4-yl}-cyclopropyl)methyl]-2-methylpropanamide] | 10 to 250 | 10 to 250 | –
O=C(NC[C@@H]1C[C@H]1c1cccc2oc(CCCCc3ccc(F)cc3)cc12)C1CC1 (stereo in doubt) [Example 40, N-[((1R,2R)-2-{2-[4-(4-Fluorophenyl)butyl]benzo[b]furan-4-yl}-cyclopropyl)methyl]cyclopropylcarboxamide] | 10 to 250 | 10 to 250 | –
CCCC(=O)NCCCc1cccc2c1C[C@H](CCCCc1ccccc1)O2 [Example 3, N-[3-[2-(4-Phenylbutyl)-2,3-dihydrobenzofuran-4-yl]propyl]butyramide] | – | – | IC50 ([1]; Table I): < 10 nM; IC50 ([2]; Table I): 10 to 250 nM
CC(=O)NCCCc1cccc2oc(CCCCc3ccccc3)cc12 [Example 9, N-[3-[2-(4-Phenylbutyl)benzofuran-4-yl]propyl]acetamide] | – | – | IC50 ([1]; Table II): 10 to 250 nM; IC50 ([2]; Table II): 10 to 250 nM
CCC(=O)NCCCc1cccc2oc(CCCCc3ccccc3)cc12 [Example 10, N-[3-[2-(4-Phenylbutyl)benzofuran-4-yl]propyl]propionamide] | – | – | IC50 ([1]; Table II): < 10 nM; IC50 ([2]; Table II): 10 to 250 nM
CCCC(=O)NCCCc1cccc2oc(CCCCc3ccccc3)cc12 [Example 11, N-[3-[2-(4-Phenylbutyl)benzofuran-4-yl]propyl]butyramide] | – | – | IC50 ([1]; Table II): 10 to 250 nM; IC50 ([2]; Table II): 10 to 250 nM
CC(C)C(=O)NCCCc1cccc2oc(CCCCc3ccccc3)cc12 [Example 12, N-[3-[2-(4-Phenylbutyl)benzofuran-4-yl]propyl]-2-methyl Propionamide] | – | – | IC50 ([1]; Table II): < 10 nM; IC50 ([2]; Table II): 10 to 250 nM
O=C(NCCCc1cccc2oc(CCCCc3ccc(C(F)(F)F)cc3)cc12)C1CC1 [Example 13, N-[3-[2-[4-(4-Trifluoromethylphenyl)butyl]benzofuran-4-yl]propyl]-cyclopropane Carboxamide] | – | – | IC50 ([1]; Table III): > 250 nM; IC50 ([2]; Table III): > 250 nM
CCNC(=O)NCCCc1cccc2oc(CCCCc3ccc(C(F)(F)F)cc3)cc12 [Example 14, N-[3-[2-[4-(4-Trifluoromethylphenyl)butyl]benzofuran-4-yl]propyl]-N′-ethyl Urea] | – | – | IC50 ([1]; Table III): 10 to 250 nM; IC50 ([2]; Table III): > 250 nM
CC(=O)NCCCc1cccc2oc(CCCCc3ccc(C(F)(F)F)cc3)cc12 [Example 15, N-[3-[2-[4-(4-Trifluoromethylphenyl)butyl]benzofuran-4-yl]propyl]-acetamide] | – | – | IC50 ([1]; Table III): 10 to 250 nM; IC50 ([2]; Table III): > 250 nM
CCC(=O)NCCCc1cccc2oc(CCCCc3ccc(C(F)(F)F)cc3)cc12 [Example 16, N-[3-[2-[4-(4-Trifluoromethylphenyl)butyl]benzofuran-4-yl]propyl]-propionamide] | – | – | IC50 ([1]; Table III): 10 to 250 nM; IC50 ([2]; Table III): 10 to 250 nM
CCCC(=O)NCCCc1cccc2oc(CCCCc3ccc(C(F)(F)F)cc3)cc12 [Example 17, N-[3-[2-[4-(4-Trifluoromethylphenyl)butyl]benzofuran-4-yl]propyl]-butyramide] | – | – | IC50 ([1]; Table III): 10 to 250 nM; IC50 ([2]; Table III): 10 to 250 nM
CC(C)C(=O)NCCCc1cccc2oc(CCCCc3ccc(C(F)(F)F)cc3)cc12 [Example 18, N-[3-[2-[4-(4-Trifluoromethylphenyl)butyl]benzofuran-4-yl]propyl]-isobutyramide] | – | – | IC50 ([1]; Table III): 10 to 250 nM; IC50 ([2]; Table III): > 250 nM
CCNC(=O)NC[C@H]1C[C@@H]1c1cccc2oc(CCCCc3ccc(F)cc3)cc12 [Example 41, N-[((1R,2R)-2-{2-[4-(4-Fluorophenyl)butyl]benzo[b]furan-4-yl-}-cyclopropyl)methyl](ethylamino)carboxamide] | 10 to 250 | > 250 | –
CCC(=O)NC[C@@H]1C[C@H]1c1cccc2c1C[C@@H](CCCCc1ccccc1)O2 [Example 43, N-({2-[(2R)-2-(4-Phenylbutyl)(2,3-dihydrobenzo[b]furan-4-yl)]-(1R,2R)cyclopropyl}methyl)propanamide] | – | – | IC50 ([1]; Table V): < 10 nM; IC50 ([2]; Table V): < 10 nM

Source: US6569894B1, “Arylalkylbenzofuran derivatives as melatonergic agents” (Bristol-Myers Squibb Company, priority 2001, dated 2003)
